Tested on: P12-Ichikawa
Test: cell viability relative to DMSO control; higher = less cytotoxic
Conditions: 48 h
How it was run: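 Viability values are per-plate percentages of DMSO wells, with background from cell-free wells. Library compounds in DMSO were pin-dosed, in an 11-point threefold series from 47 μM to 0.79 nM, onto NOMO1 or SEM (500 cells/well) or P12-Ichikawa (1000 cells/well) leukemia cells in 1536-well plates (5 μl). Those cells had been adapted for at least four passages in each medium, and CellTiter-Glo One luminescence was read after 48 h at 37°C.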

[1] = HPLM + 10% dialyzed FBS, 0.000781 µM
[2] = HPLM + 10% dialyzed FBS, 0.00234 µM
[3] = HPLM + 10% dialyzed FBS, 0.00702 µM
[4] = HPLM + 10% dialyzed FBS, 0.0211 µM
[5] = HPLM + 10% dialyzed FBS, 0.0632 µM
[6] = HPLM + 10% dialyzed FBS, 0.19 µM
[7] = HPLM + 10% dialyzed FBS, 0.569 µM
[8] = HPLM + 10% dialyzed FBS, 1.71 µM
[9] = HPLM + 10% dialyzed FBS, 5.12 µM
[10] = HPLM + 10% dialyzed FBS, 15.4 µM
[11] = HPLM + 10% dialyzed FBS, 46.1 µM
[12] = RPMI 5 mM glucose + 10% FBS, 0.000781 µM
[13] = RPMI 5 mM glucose + 10% FBS, 0.00234 µM
[14] = RPMI 5 mM glucose + 10% FBS, 0.00702 µM
[15] = RPMI 5 mM glucose + 10% FBS, 0.0211 µM
[16] = RPMI 5 mM glucose + 10% FBS, 0.0632 µM
[17] = RPMI 5 mM glucose + 10% FBS, 0.19 µM
[18] = RPMI 5 mM glucose + 10% FBS, 0.569 µM
[19] = RPMI 5 mM glucose + 10% FBS, 1.71 µM
[20] = RPMI 5 mM glucose + 10% FBS, 5.12 µM
[21] = RPMI 5 mM glucose + 10% FBS, 15.4 µM
[22] = RPMI 5 mM glucose + 10% FBS, 46.1 µM
[23] = RPMI 5 mM glucose + 10% dialyzed FBS, 0.000781 µM
[24] = RPMI 5 mM glucose + 10% dialyzed FBS, 0.00234 µM
[25] = RPMI 5 mM glucose + 10% dialyzed FBS, 0.00702 µM
[26] = RPMI 5 mM glucose + 10% dialyzed FBS, 0.0211 µM
[27] = RPMI 5 mM glucose + 10% dialyzed FBS, 0.0632 µM
[28] = RPMI 5 mM glucose + 10% dialyzed FBS, 0.19 µM
[29] = RPMI 5 mM glucose + 10% dialyzed FBS, 0.569 µM
[30] = RPMI 5 mM glucose + 10% dialyzed FBS, 1.71 µM
[31] = RPMI 5 mM glucose + 10% dialyzed FBS, 5.12 µM
[32] = RPMI 5 mM glucose + 10% dialyzed FBS, 15.4 µM
[33] = RPMI 5 mM glucose + 10% dialyzed FBS, 46.1 µM

`NC(=O)c1ccc(-c2nc(-c3ccc4c(c3)OCCO4)c(-c3ccccn3)[nH]2)cc1` gave a cell viability [1] of 120%, a cell viability [2] of 125% and a cell viability [3] of 125%. For the same compound, the cell viability [4] was 118%, the cell viability [5] was 122% and the cell viability [6] was 119%. The cell viability [7] was 124%, the cell viability [8] was 122% and the cell viability [9] was 117%. For the same compound, the cell viability [10] was 117%, the cell viability [11] was 111% and the cell viability [12] was 122%. It also gave a cell viability [13] of 126%, a cell viability [14] of 115% and a cell viability [15] of 129%. For the same compound, the cell viability [16] was 117%, the cell viability [17] was 115% and the cell viability [18] was 118%. For the same compound, the cell viability [19] was 131%, the cell viability [20] was 116% and the cell viability [21] was 114%. It also gave a cell viability [22] of 110%, a cell viability [23] of 121% and a cell viability [24] of 114%. The cell viability [25] was 120%, the cell viability [26] was 126% and the cell viability [27] was 126%. For the same compound, the cell viability [28] was 121%, the cell viability [29] was 121% and the cell viability [30] was 110%. For the same compound, the cell viability [31] was 127%, the cell viability [32] was 117% and the cell viability [33] was 106%.
Work on `CC1(C)[C@@H](O[C@H]2O[C@H](C(=O)O)[C@@H](O)[C@H](O)[C@H]2O[C@@H]2O[C@H](C(=O)O)[C@@H](O)[C@H](O)[C@H]2O)CC[C@]2(C)[C@H]3C(=O)C=C4[C@@H]5C[C@@](C)(C(=O)O)CC[C@]5(C)CC[C@@]4(C)[C@]3(C)CC[C@@H]12` yielded a cell viability [1] of 112%, a cell viability [2] of 130% and a cell viability [3] of 118%. For the same compound, the cell viability [4] was 132%, the cell viability [5] was 128% and the cell viability [6] was 131%. It also gave a cell viability [7] of 136%, a cell viability [8] of 128% and a cell viability [9] of 123%. The cell viability [10] was 128% and the cell viability [11] was 135%.
With `COCCOC(=O)C/1=C(C)/NC/2=C(C1C3=CC=CC(=C3)O)/C(=O)CC(C2)C4=C(OC)C=CC=C4` (stereo not given) the cell viability [1] was 94.3%, the cell viability [2] was 97.9% and the cell viability [3] was 102%. For the same compound, the cell viability [4] was 105%, the cell viability [5] was 110% and the cell viability [6] was 100%. For the same compound, the cell viability [7] was 106%, the cell viability [8] was 105% and the cell viability [9] was 91.5%. It also gave a cell viability [10] of 86.7%, a cell viability [11] of 26.8% and a cell viability [12] of 103%. For the same compound, the cell viability [13] was 102%, the cell viability [14] was 104% and the cell viability [15] was 112%. It also gave a cell viability [16] of 118%, a cell viability [17] of 110% and a cell viability [18] of 113%. For the same compound, the cell viability [19] was 101%, the cell viability [20] was 96.3% and the cell viability [21] was 89.5%. For the same compound, the cell viability [22] was 54.1%, the cell viability [23] was 94.8% and the cell viability [24] was 97.9%. It also gave a cell viability [25] of 91.7%, a cell viability [26] of 104% and a cell viability [27] of 101%. The cell viability [28] was 104%, the cell viability [29] was 101% and the cell viability [30] was 94.7%. For the same compound, the cell viability [31] was 87.6%, the cell viability [32] was 88.1% and the cell viability [33] was 46.8%.
`COC1=CC=C2Nc3cc(Cl)ccc3C(N=C3C=C(CN4CCCC4)C(=O)C(CN4CCCC4)=C3)=C2N1` showed a cell viability [1] of 116%, a cell viability [2] of 116% and a cell viability [3] of 116%. For the same compound, the cell viability [4] was 122%, the cell viability [5] was 123% and the cell viability [6] was 123%. It also gave a cell viability [7] of 120%, a cell viability [8] of 127% and a cell viability [9] of 124%. For the same compound, the cell viability [10] was 117%, the cell viability [11] was 103% and the cell viability [12] was 110%. For the same compound, the cell viability [13] was 131%, the cell viability [14] was 114% and the cell viability [15] was 130%. For the same compound, the cell viability [16] was 133%, the cell viability [17] was 130% and the cell viability [18] was 133%. It also gave a cell viability [19] of 132%, a cell viability [20] of 129% and a cell viability [21] of 122%. It also gave a cell viability [22] of 87.6%, a cell viability [23] of 113% and a cell viability [24] of 123%. It also gave a cell viability [25] of 120%, a cell viability [26] of 126% and a cell viability [27] of 120%. For the same compound, the cell viability [28] was 115%, the cell viability [29] was 127% and the cell viability [30] was 125%. The cell viability [31] was 115%, the cell viability [32] was 117% and the cell viability [33] was 93%.
Compound `Cc1cc(O)c2c3c4c(cc(O)c13)C(C)(C)C(=O)c1c(O)cc(O)c(c1-4)C2=O` has a cell viability [1] of 104%, a cell viability [2] of 108% and a cell viability [3] of 111%. It also gave a cell viability [4] of 107%, a cell viability [5] of 111% and a cell viability [6] of 106%. The cell viability [7] was 113%, the cell viability [8] was 107% and the cell viability [9] was 106%. For the same compound, the cell viability [10] was 105%, the cell viability [11] was 39% and the cell viability [12] was 107%. For the same compound, the cell viability [13] was 106%, the cell viability [14] was 109% and the cell viability [15] was 99.8%. The cell viability [16] was 114%, the cell viability [17] was 107% and the cell viability [18] was 115%. The cell viability [19] was 109%, the cell viability [20] was 110% and the cell viability [21] was 97.2%. For the same compound, the cell viability [22] was 42.2%, the cell viability [23] was 103% and the cell viability [24] was 112%. It also gave a cell viability [25] of 117%, a cell viability [26] of 109% and a cell viability [27] of 107%. For the same compound, the cell viability [28] was 101%, the cell viability [29] was 111% and the cell viability [30] was 104%. For the same compound, the cell viability [31] was 105%, the cell viability [32] was 93.2% and the cell viability [33] was 35.2%.
`Cl.c1cnc2cc3c(cc2n1)C1CNCC3C1` showed a cell viability [1] of 108%, a cell viability [2] of 111% and a cell viability [3] of 114%. The cell viability [4] was 114%, the cell viability [5] was 119% and the cell viability [6] was 114%. The cell viability [7] was 117%, the cell viability [8] was 122% and the cell viability [9] was 114%. The cell viability [10] was 114%, the cell viability [11] was 106% and the cell viability [12] was 106%. For the same compound, the cell viability [13] was 115%, the cell viability [14] was 121% and the cell viability [15] was 117%. It also gave a cell viability [16] of 122%, a cell viability [17] of 117% and a cell viability [18] of 127%. It also gave a cell viability [19] of 118%, a cell viability [20] of 127% and a cell viability [21] of 130%. The cell viability [22] was 130%, the cell viability [23] was 106% and the cell viability [24] was 113%. The cell viability [25] was 112%, the cell viability [26] was 116% and the cell viability [27] was 123%. The cell viability [28] was 114%, the cell viability [29] was 121% and the cell viability [30] was 123%. For the same compound, the cell viability [31] was 121%, the cell viability [32] was 116% and the cell viability [33] was 120%.
In the case of `CC[C@]1(O)C[C@H]2CN(CCC3=C([NH]C4=C3C=CC=C4)[C@@](C2)(C(=O)OC)C5=CC6=C(C=C5OC)N(C=O)[C@H]7[C@](O)([C@H](OC(C)=O)[C@]8(CC)\C=C/C[N@@]9CC[C@]67[C@H]89)C(=O)OC)C1`, the cell viability [1] is reported as 118%, the cell viability [2] is reported as 117% and the cell viability [3] is reported as 119%. The cell viability [4] was 82.3%, the cell viability [5] was 21.6% and the cell viability [6] was 17.7%. For the same compound, the cell viability [7] was 11%, the cell viability [8] was 10.2% and the cell viability [9] was 11.3%. The cell viability [10] was 9.28%, the cell viability [11] was 8.54% and the cell viability [12] was 115%. The cell viability [13] was 109%, the cell viability [14] was 112% and the cell viability [15] was 75.1%. For the same compound, the cell viability [16] was 19.5%, the cell viability [17] was 15.9% and the cell viability [18] was 9.98%. For the same compound, the cell viability [19] was 8.03%, the cell viability [20] was 8.69% and the cell viability [21] was 8.09%. It also gave a cell viability [22] of 6.94%, a cell viability [23] of 105% and a cell viability [24] of 108%. The cell viability [25] was 110%, the cell viability [26] was 106% and the cell viability [27] was 35.6%. For the same compound, the cell viability [28] was 34.6%, the cell viability [29] was 20.5% and the cell viability [30] was 12%. The cell viability [31] was 12.1%, the cell viability [32] was 12.8% and the cell viability [33] was 12.6%.
`CC1SC/2=C(C(O)=O)/C(=O)C3=CC(=C(C=C3N12)N4CCN(CC4)C\C5=C(C)\OC(=O)O5)F` (stereo not given) was tested, and the cell viability [1] was 134%, the cell viability [2] was 122% and the cell viability [3] was 121%. For the same compound, the cell viability [4] was 124%, the cell viability [5] was 125% and the cell viability [6] was 123%. For the same compound, the cell viability [7] was 119%, the cell viability [8] was 117% and the cell viability [9] was 113%. For the same compound, the cell viability [10] was 112% and the cell viability [11] was 102%.

Reference: the supplement of paper PMC11451515
